Values quoted from earlier work in patent publication US4199598A, “Method of treating noradrenaline dysfunction or for dopamine-β-hydroxylase inhibition” (Richter Gedeon Vegyeszeti Gyar Rt., priority 1976, dated 1980).

System: dopamine-β-hydroxylase
Conditions: in words, prior art; cited from earlier work

Row | SMILES | dopamine-β-hydroxylase inhibiting effects | duration of activity
1 | CCCCc1ccc(C(=O)O)nc1 [Fusaric acid, 5-butyl-picolinic acid] | strong dopamine-β-hydroxylase inhibiting effects | 
2 | NNc1nncc2ccccc12 [Hydralazine, hydralazine] | possess dopamine-β-hydroxylase inhibiting effects | 
3 | O=C(CO)c1coc(=O)c2c(O)cccc12 [Oosponol] | strong dopamine-β-hydroxylase inhibiting effects | 
4 | CC(N)Cc1ccccc1 (centres unmarked) [amphetamine] | possess dopamine-β-hydroxylase inhibiting effects | 
5 | NNCc1ccccc1 [benzylhydrazine] | exert dopamine-β-hydroxylase inhibiting effects | exert their activities for a short period
6 | CCN(CC)C(=S)S [diethyl dithiocarbamate] | strong dopamine-β-hydroxylase inhibiting effects | 
7 | Cn1cc[nH]c1=S [methimazol] | possess dopamine-β-hydroxylase inhibiting effects | 
